Read-outs that look alike come from different tables or passages of the source. Where a SMILES comes first, the peptide text is derived from it. [ ]: non-standard residue; d: D form. The star is where a group is joined. ξ: configuration not given here. Ala(6-(2-MePh)pyridin-3-yl) = Cc1ccccc1-c1ccc(C[C@H](N)C(=O)O)cn1; Phe(4-(2-Et-4-HO-Ph)) = CCc1cc(O)ccc1-c1ccc(C[C@H](N)C(=O)O)cc1; Bip(2'-Et-4'-OMe) = CCc1cc(OC)ccc1-c1ccc(C[C@H](N)C(=O)O)cc1; αMePhe(2-F) = C[C@](N)(Cc1ccccc1F)C(=O)O; ξαMePhe(2-F) = CC(N)(Cc1ccccc1F)C(=O)O; ξαMeP = CC1(C(=O)O)CCCN1; Aib = CC(C)(N)C(=O)O; Moc = COC(=O)*
Assays:
[1] = system: ob/ob mice; test: intraperitoneal glucose tolerance test (ipGTT) after sc injection in ob/ob mice (plasma glucose, insulin); assay type: in vivo; conditions: for % AUC Reduction in Plasma Glucose in an IP Glucose Tolerance Test after SC Injection of Compound: 10 nmol/kg, vs vehicle group; for effect on postprandial plasma glucose (in words): ipGTT 0-180 or 210 min; for Potency in ob/ob mice, ED50: sc injection, ipGTT, plasma glucose AUC
Procedure: (§1) Peptides were dissolved in an appropriate vehicle at a concentration in nmol/ml equivalent to the dose that was to be administered in nmol/kg so that each mouse would receive the same volume/weight of dosing solution. Male C57BL/6J-ob/ob mice (10 weeks old) were randomized into groups of 6 mice per group based on fed plasma glucose and body weight. After an overnight fast, mice were weighed and placed in the experimental lab. After 30 min in the environment, the mice were bled via tail tip at −30 min and immediately injected subcutaneously (sc) with vehicle or the peptide dissolved in vehicle (0.1 ml solution/100 g body weight). At time 0 the mice were bled and then injected intraperitoneally with 50% glucose (2 g/kg) to initiate the intraperitoneal glucose tolerance test (ipGTT). The mice were bled 30, 60, 120 and 180 min after the glucose injection. Blood samples were drawn into potassium EDTA, placed on ice during the study and subsequently centrifuged for 10 min at 3000 rpm at 4° C. Plasma samples were diluted 11-fold for glucose analysis in the Cobas System. Another 5 μl plasma sample was diluted 5-fold with 20 μl of Sample Diluent (Insulin ELISA assay kit, Crystal Chem Inc.) and stored at −20° C. for subsequent analysis using the Ultra Sensitive Mouse Insulin ELISA kit (Crystal Chem Inc.).

[2] = Dog pharmacokinetic study (iv and sc, solution vehicles); assay type: in vivo; conditions: for half-life: read-out: t½ (converted)
Procedure: The pharmacokinetic parameters of the compound of SEQ ID NO:9 were determined in male beagle dogs (n=4, 14±1 kg). Following an overnight fast, each animal received the compound of SEQ ID NO:9 either as an intravenous bolus via femoral vein (67 μg/kg) or by subcutaneous injection given at near the shoulder blades (67 μg/kg). Each animal received both intravenous and subcutaneous doses with a one-week washout between doses following a crossover design. […] Serial blood samples were collected in EDTA-containing microcentrifuge tubes at predose, 0.083, 0.25, 0.5, 0.75, 1, 2, 4, 6, 8, 24, and 30 hours post-dose after intravenous administration; at predose, 0.25, 0.5, 0.75, 1, 2, 4, 6, 8, 24, and 30 hours post-dose after subcutaneous administration. Approximately 0.3 mL of blood was collected at each time point. Blood samples were immediately centrifuged at 4° C. The obtained plasma was frozen with dry ice and stored at −20° C. Plasma drug levels were determined using the LC-MS/MS assay described above.
Plasma samples from in vivo dog study were prepared for analysis by precipitating plasma proteins with two volumes of acetonitrile containing an internal standard. The samples were vortex mixed and removed the precipitated proteins by centrifugation. The resulting supernatants were transferred to a 96-well plate and 10 μL were injected for analysis. Samples were prepared with the Packard Multiprobe II and Quadra 96 Liquid Handling System.
The HPLC system consisted of two Shimadzu LC10AD pumps (Columbia, Md.), a CTC PAL autosampler (Leap Technologies, Switzerland). The column used was a YMC Hydrosphere C18 (2.0×50 mm, 3 μm) (YMC, Inc., Milford, Ma.). The column temperature was maintained at 50° C. and the flow rate was 0.3 mL/minute. The mobile phase A consisted of 10 mM ammonium formate and 0.1% formic acid in water and mobile phase B consisted of 0.1% formic acid in acetonitrile. The initial mobile phase composition was 5% B, and remained at 5% B for one minute to equilibrate the column. The composition was ramped to 95% B over two minutes and held there for one additional minute. The mobile phase was then returned to initial conditions in one minute. Total analysis time was five minutes. A switching valve was used. The eluents between 0-1 minute were diverted to the waste.
The HPLC was interfaced to a Sciex API 4000 mass spectrometer, (Applied Biosystems, Foster City, Calif.) and was equipped with a TurboIonspray ionization source. Ultra high purity nitrogen was used as the nebulizing and turbo gas. The temperature of turbo gas was set at 300° C. and the interface heater was set at 60° C. Data acquisition utilized selected reaction monitoring (SRM). Ions representing the (M+2H)^2+ species for the compound of SEQ ID NO:9, and (M+2H)^2+ for BMS-501143 (IS) were selected in Q1 and were collisionally dissociated with high purity nitrogen at a pressure of 3.5×10^−3torr to form specific product ions which were subsequently monitored by Q3.
The standard curve concentrations, ranging from 1 to 1000 nM and from 4 to 5000 nM, were used for the in vivo samples obtained from low and high doses, respectively. The curves were fitted with a quadratic regression weighted by reciprocal […]. Standards were analyzed in duplicate. Quality control (QC) samples, prepared in blank matrix at the same concentrations as the standard were also analyzed in each analytical set. For the compound of SEQ ID NO:9, the calculated concentrations of more than 80% of the QCs were within 20% of nominal concentration, indicating acceptable assay performance.
The compound of SEQ ID NO:9 plasma concentration vs. time data were analyzed by noncompartmental methods using the […]™ software program. The Cmax and Tmax values were recorded directly from experimental observations. The AUC0-n and AUCtot values were calculated using a combination of linear and log trapezoidal summations. […]

[3] = Solubility of compound of SEQ ID NO:9 in the presence of Zn(II) / Zn adduct; assay type: physicochemical; conditions: pH 6.8, 50 mM phosphate buffer
Procedure: Once the Zn/Compound of SEQ ID NO:9 adduct was formed, formulation development studies were conducted in order to evaluate the solubility of the compound of SEQ ID NO:9 in the presence of Zn(II). An excess amount of the compound of SEQ ID NO:9 was suspended in pH 6.8, 50 mM phosphate buffer. The suspension was then placed on an orbital shaker (Model, 100 RPM) at ambient temperature for 12 hours. The suspension was then centrifuged (Model, speed) and the saturated the clear supernatant of the compound of SEQ ID NO:9 was collected into 10 ml centrifuge tubes. A predetermined amount of zinc acetate solution (50 mM, pH 6.8 phosphate buffer) was added into the saturated solution and then precipitated. The concentration of the compound of SEQ ID NO:9 in solution was obtained by centrifuging the suspension and analyzing the clear supernatants by HPLC.
To confirm that the Zn/Compound of SEQ ID NO:9 binding is reversible, the Zn/Compound of SEQ ID NO:9 adduct was suspended in pH 6.8, 50 mM phosphate buffer. A strong chelating agent for Zn(II), EDTA, was added into the suspension in excess amount. The Zn/Compound of SEQ ID NO:9 suspension with and without EDTA was centrifuged and the supernatants were injected into HPLC.

[4] = Exposure during ipGTT in ob/ob mice; assay type: in vivo; conditions: sc
Procedure: as §1

[5] = Solubility of protamine/Compound of SEQ ID NO:9 adduct and in protamine solution; assay type: physicochemical; conditions: MeOH
Description: Thus, the administration of the protamine/Compound of SEQ ID NO:9 adduct may need a suitable suspending agent; or it maybe injected as dry powder.
Therefore, suspension of the compound of SEQ ID NO:9 in the presence of protamine could still provide extended release effect without using pre-formed protamine/SEQ ID NO:9 adduct.

[6] = male, beagle, plasma, sc, 67 ug/kg, dog, subcutaneous 67 μg/kg, propylene glycol:phosphate buffer (50:50)
[7] = beagle, plasma, 67 ug/kg, dog, intravenous 67 μg/kg, Tables 6A-6C (6A vehicle 0.2 M Tris, pH 8.0)
[8] = beagle, plasma, sc, 67 ug/kg, dog, subcutaneous 67 μg/kg, Tables 6A-6C (vehicle 0.2 M Tris, pH 8.0)

CCc1cc(OC)ccc1-c1ccc(C[C@H](NC(=O)[C@H](CC(=O)O)NC(=O)[C@H](CO)NC(=O)[C@@H](NC(=O)[C@](C)(Cc2ccccc2F)NC(=O)[C@@H](NC(=O)CNC(=O)[C@H](CCC(=O)O)NC(=O)C(C)(C)NC(=O)[C@@H](N)Cc2c[nH]cn2)[C@@H](C)O)[C@@H](C)O)C(=O)N[C@@H](Cc2ccc(-c3ccccc3C)nc2)C(N)=O)cc1 [SEQ ID NO: 9] (H-H[Aib]EGT[αMePhe(2-F)]TSD[Bip(2'-Et-4'-OMe)][Ala(6-(2-MePh)pyridin-3-yl)]-NH2)
% AUC Reduction in Plasma Glucose in an IP Glucose Tolerance Test after SC Injection of Compound ([1]; ob/ob mice): −68% (p < 0.0001)
effect on postprandial plasma glucose (in words) ([1]; ob/ob mice, sc): statistically significant decrease
Potency in ob/ob mice, ED50 [1]: 5 nmol/kg
Potency in ob/ob mice, ED50 ([1]; listed as 9): ED50 = 5 nmoles/kg
Exposure in dogs (sc@67 μg/kg) ([2]; Table I, vehicle 0.2 M Tris buffer (pH 8.0)): 0.452 µM·h
Vss relative to extracellular fluid ([2]; dog, iv, extracellular fluid 0.14 L/kg): 71 % of extracellular fluid
systemic clearance as % of liver blood flow ([2]; dog, iv, liver blood flow 31 mL/min/kg): 3.2 % of liver blood flow
Vss relative to vascular fluid ([2]; dog, iv, vascular fluid 0.05 L/kg): 2 times of vascular fluid
clearance ([2]; male, beagle, blood, 67 ug/kg, dog, intravenous 67 μg/kg, propylene glycol:phosphate buffer (50:50), read-out: CLB (systemic blood clearance)): 0.9 ± 0.2 mL/min/kg
MRT ([2]; male, beagle, plasma, 67 ug/kg, dog, intravenous 67 μg/kg, propylene glycol:phosphate buffer (50:50)): 3 ± 1 h
clearance ([2]; male, beagle, plasma, 67 ug/kg, dog, intravenous 67 μg/kg, propylene glycol:phosphate buffer (50:50), read-out: CLp): 0.6 ± 0.1 mL/min/kg
Vd ([2]; male, beagle, plasma, 67 ug/kg, dog, intravenous 67 μg/kg, propylene glycol:phosphate buffer (50:50), read-out: VSS): 0.1 ± 0.03 L/kg
Cmax [2, 6]: 90 ± 29 nM
Tmax [2, 6]: 5 ± 1 h
solubility thermodynamic ([3]; aqueous buffer, 25° C., excess EDTA): 18 µg/mL
solubility in the presence of Zn(II) / of the Zn adduct (in words) [3]: continued to decrease until below the detection limit of HPLC
Exposure/dose during ipGTT in ob/ob mice [4]: 18 nM * h/nmol/kg
solubility [5]: > 50000 µg/mL

CCc1cc(OC)ccc1-c1ccc(C[C@H](NC(=O)[C@H](CC(=O)O)NC(=O)[C@H](CO)NC(=O)[C@@H](NC(=O)C(C)(Cc2ccccc2F)NC(=O)[C@@H](NC(=O)CNC(=O)[C@H](CCC(=O)O)NC(=O)C2(C)CCCN2C(=O)[C@@H](N)Cc2c[nH]cn2)[C@@H](C)O)[C@@H](C)O)C(=O)N[C@@H](Cc2ccc(-c3ccccc3C)nc2)C(N)=O)cc1 (stereo partly drawn) [SEQ ID NO: 118] (H-H[ξαMeP]EGT[ξαMePhe(2-F)]TSD[Bip(2'-Et-4'-OMe)][Ala(6-(2-MePh)pyridin-3-yl)]-NH2)
% AUC Reduction in Plasma Glucose in an IP Glucose Tolerance Test after SC Injection of Compound ([1]; ob/ob mice): −70% (p < 0.001)
plasma glucose AUC decrease ([1]; ob/ob mice, sc, 30 nmol/kg): 81%
effect on postprandial plasma glucose (in words) ([1]; ob/ob mice, sc): statistically significant decrease
Potency in ob/ob mice, ED50 [1]: 2.5 nmol/kg
AUC ([2]; male, beagle, dog, plasma, sc, 67 ug/kg, Table II, vehicle propylene glycol/pH 7.4 phosphate buffer (1:1), read-out: Exposure in dogs (sc@67 μg/kg)): 4.02 µM·h
Exposure/dose during ipGTT in ob/ob mice [4]: 4.4 nM * h/nmol/kg

CCc1cc(O)ccc1-c1ccc(C[C@H](NC(=O)[C@H](CC(=O)O)NC(=O)[C@H](CO)NC(=O)[C@@H](NC(=O)C(C)(Cc2ccccc2F)NC(=O)[C@@H](NC(=O)CNC(=O)[C@H](CCC(=O)O)NC(=O)C2(C)CCCN2C(=O)[C@H](Cc2c[nH]cn2)NC(=O)OC)[C@@H](C)O)[C@@H](C)O)C(=O)N[C@@H](Cc2ccc(-c3ccccc3C)nc2)C(N)=O)cc1 (stereo partly drawn) [SEQ ID NO: 158] (Moc-H[ξαMeP]EGT[ξαMePhe(2-F)]TSD[Phe(4-(2-Et-4-HO-Ph))][Ala(6-(2-MePh)pyridin-3-yl)]-NH2)
effect on postprandial plasma glucose (in words) ([1]; ob/ob mice, sc): statistically significant decrease
MRT [2, 7]: 4.9 ± 0.7 h
AUC ([2]; beagle, plasma, 67 ug/kg, dog, intravenous 67 μg/kg, Tables 6A-6C (6A vehicle 0.2 M Tris, pH 8.0), read-out: AUCtot): 1.39 ± 0.227 µM·h
clearance ([2]; beagle, plasma, 67 ug/kg, dog, intravenous 67 μg/kg, Tables 6A-6C (6A vehicle 0.2 M Tris, pH 8.0), read-out: CLp): 0.51 ± 0.08 mL/min/kg
half-life [2, 7]: 4.4 ± 0.4 h
Cmax [2, 8]: 279 ± 82 nM
MRT [2, 8]: 5.2 ± 1.5 h
Tmax [2, 8]: 1.4 ± 0.7 h
AUC ([2]; beagle, plasma, sc, 67 ug/kg, dog, subcutaneous 67 μg/kg, Tables 6A-6C (vehicle 0.2 M Tris, pH 8.0), read-out: AUCtot): 1.47 ± 0.563 µM·h
half-life [2, 8]: 3.9 ± 1.3 h
bioavailability ([2]; beagle, plasma, dog, subcutaneous vs intravenous 67 μg/kg, Tables 6A-6C (vehicle 0.2 M Tris, pH 8.0)): 110 ± 49%
Exposure/dose during ipGTT in ob/ob mice [4]: 11 nM * h/nmol/kg
